Experimental data published in ChEMBL document CHEMBL5036306 (J Med Chem, 2021).
Active and inactive are the calls of the source. The rule behind the calls is not given here.

Assays:
Histone deacetylase 8 = biological target: T1, Histone deacetylase 8 (Homo sapiens, UniProt Q9BY41); assay: Inhibition of recombinant HDAC8 (unknown origin) using Boc-Lys(trifluoroacetyl)-AMC as substrate pre-incubated for 1 hr followed by substrate addition and measured after 2 hrs by fluorescence based assay
T1 sequence (Q9BY41 whole entry): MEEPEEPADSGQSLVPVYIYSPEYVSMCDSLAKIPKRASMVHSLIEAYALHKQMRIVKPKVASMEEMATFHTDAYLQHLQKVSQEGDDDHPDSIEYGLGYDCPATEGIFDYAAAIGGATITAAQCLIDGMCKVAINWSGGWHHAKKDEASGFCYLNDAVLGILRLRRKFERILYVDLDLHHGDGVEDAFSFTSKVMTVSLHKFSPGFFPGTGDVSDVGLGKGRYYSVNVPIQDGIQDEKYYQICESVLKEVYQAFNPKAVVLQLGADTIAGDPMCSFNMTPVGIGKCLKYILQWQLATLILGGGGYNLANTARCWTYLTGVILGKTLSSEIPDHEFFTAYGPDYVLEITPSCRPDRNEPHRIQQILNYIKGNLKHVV

[1] = biological target: T2, Protein deacetylase HDAC6 (Homo sapiens, UniProt Q9UBN7); assay: Inhibition of recombinant HDAC6 (unknown origin) using Boc-Lys(acetyl)-AMC as substrate preincubated for 1 hr followed by substrate addition and measured after 2 hrs by fluorescence based assay
T2 sequence (Q9UBN7 whole entry): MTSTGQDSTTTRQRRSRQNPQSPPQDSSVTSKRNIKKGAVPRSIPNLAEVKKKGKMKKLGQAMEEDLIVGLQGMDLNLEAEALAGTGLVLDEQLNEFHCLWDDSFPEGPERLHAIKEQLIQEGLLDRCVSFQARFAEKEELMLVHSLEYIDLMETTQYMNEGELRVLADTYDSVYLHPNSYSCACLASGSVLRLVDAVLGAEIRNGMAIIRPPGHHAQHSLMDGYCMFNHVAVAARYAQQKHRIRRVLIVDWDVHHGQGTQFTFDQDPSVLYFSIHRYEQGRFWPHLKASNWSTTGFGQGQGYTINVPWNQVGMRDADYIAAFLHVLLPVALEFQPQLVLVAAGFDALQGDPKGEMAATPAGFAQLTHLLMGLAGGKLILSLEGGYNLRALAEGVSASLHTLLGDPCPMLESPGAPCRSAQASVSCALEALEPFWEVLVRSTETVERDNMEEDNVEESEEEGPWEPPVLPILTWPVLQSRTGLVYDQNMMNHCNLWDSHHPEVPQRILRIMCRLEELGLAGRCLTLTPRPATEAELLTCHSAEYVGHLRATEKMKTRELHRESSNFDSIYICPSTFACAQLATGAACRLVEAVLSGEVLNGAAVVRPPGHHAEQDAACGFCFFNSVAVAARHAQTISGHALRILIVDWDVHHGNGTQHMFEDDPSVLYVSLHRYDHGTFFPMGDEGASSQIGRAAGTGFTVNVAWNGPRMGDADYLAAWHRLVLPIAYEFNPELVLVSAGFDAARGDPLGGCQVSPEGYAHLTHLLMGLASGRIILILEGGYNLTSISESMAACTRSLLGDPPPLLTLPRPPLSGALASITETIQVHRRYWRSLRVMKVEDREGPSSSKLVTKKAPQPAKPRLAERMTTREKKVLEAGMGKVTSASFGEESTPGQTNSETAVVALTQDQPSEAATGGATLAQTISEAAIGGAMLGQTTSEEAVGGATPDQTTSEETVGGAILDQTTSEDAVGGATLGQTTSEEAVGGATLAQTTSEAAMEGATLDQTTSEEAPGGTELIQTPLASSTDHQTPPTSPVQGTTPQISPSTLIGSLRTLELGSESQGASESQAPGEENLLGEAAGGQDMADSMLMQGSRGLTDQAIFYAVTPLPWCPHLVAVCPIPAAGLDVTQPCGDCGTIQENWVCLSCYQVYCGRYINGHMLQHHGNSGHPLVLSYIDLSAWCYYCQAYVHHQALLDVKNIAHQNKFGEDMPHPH

N9 [2] = assay: Immunomodulatory activity in mouse N9 microglial cells assessed as reduction in LPS-induced IL1beta level incubated for 24 hrs by colorimetric assay; assay type: functional, cell-based; settings: dose 0.1-5 µM
N9 [3] = assay: Immunomodulatory activity in mouse N9 microglial cells assessed as reduction in LPS-induced nitrite accumulation incubated for 24 hrs by Griess reagent based analysis; assay type: functional, cell-based; settings: dose 0.1-5 µM
Mus musculus [4] = assay: Anti-alzheimer activity against amyloid beta (25 to 35) induced working memory deficit in mouse assessed as increase in spontaneous alternation performance at 0.3 mg/kg, ip administered for 7 days and measured on day 8 by Y-maze test; assay type: functional, organism-based; settings: time 8.0 day
Mus musculus [5] = assay: Neuroprotection against mouse model of Alzheimer's disease at 1 mg/kg; assay type: functional, organism-based
Homo sapiens = species: Homo sapiens; assay: Selectivity ratio of IC50 for recombinant HDAC8 (unknown origin) to IC50 for recombinant HDAC6 (unknown origin)

`COc1ccc2[nH]cc(CCN(Cc3ccc(C(=O)NO)cc3)C(=O)/C=C/c3ccc(O)c(OC)c3)c2c1` was tested. Which IC50 (Histone deacetylase 8) did it give?
Its IC50 is 3590 nM.

And the IC50 [1]?
The IC50 was 30.7 nM.

What about the Activity (N9 [2]) of the same compound?
The Activity was “Dose-Dependent Effect”.

And the Activity (N9 [3])?
Its Activity is “Dose-Dependent Effect”.

What about the Activity (Mus musculus [4]) of the same compound?
The Activity was “Active”.

What about the Activity (Mus musculus [5]) of the same compound?
The Activity was “Active”.

What about the Ratio IC50 (Homo sapiens) of the same compound?
The Ratio IC50 was 117.

How did the IC50 (Histone deacetylase 8) turn out when `COc1ccc2c(c1)c(CCNC(C)=O)cn2Cc1ccc(C(=O)NO)cc1` was run?
Its IC50 is 838 nM.

What about the IC50 [1] of the same compound?
Its IC50 is 11.2 nM.

And the Ratio IC50 (Homo sapiens)?
Its Ratio IC50 is 75.
